Assay results reported in patent publication US20170122958A1, “Enzymes Functional Probes” (University of Dundee, priority 2013, published 2017).

Legend:
[1] = test system: WT and mutants (Leu to Ala, Leu to Val and Leu to Ile) of Brd2(2); assay: ITC of compound into protein (FIG. 16); type: binding, human; conditions: 250 μM compound into 25 μM protein; result in words
Method: To investigate the utility of the new compounds further, the inventors performed isothermal titration experiments by titrating 250 μM compound solutions (AL, ME-Am1, ET-Am1, ME-Am2, ET-Am2, 9-ME, 9-ET, 9-ME-Am1 and 9-ET-Am1) 25 μM protein solutions (WT and mutants (Leu to Ala, Leu to Val and Leu to Ile) of Brd2(2)).
ITC experiments were carried out on a ITC200 instrument from MicroCal™ Experiments were conducted at 3 different temperatures 15° C., 25° C. and 30° C., while stirring at 1000 rpm. Buffers of proteins, peptide and compounds were matched to 20 mM HEPES pH 7.5 at 25° C. and 100 mM NaCl. Frozen protein was buffer exchanged as described for the DSF experiments. Each titration comprised 1 initial injection of 0.4 μl lasting 0.8 s, followed by 19 injections of 2 μl lasting 4 s each at 2 min intervals. The initial injection was discarded during data analysis. Standard and reverse titrations were conducted depending on the binding partners.
All the data was fitted to a single binding site model using the Microcal LLC ITC200 Origin software provided by the manufacturer to yield enthalpies of binding (ΔH) and binding constants (Kas). Further thermodynamic parameters were calculated from these values (changes in entropy ΔS, changes in free energy AG and dissociation constants (Kds)).

[2] = target: Brd2(1)*(Met165Ala) (Homo sapiens, UniProt P25440, M165A); assay: DSF thermal shift; type: binding; set-up: Plasmids of the eight single BET bromodomain constructs Brd2(1), Brd2(2), Brd3(1), Brd3(2); His6 (N); made in house; host or cells: E. coli BL21(DE3); conditions: mutant
Chain of Brd2(1)*(Met165Ala) (P25440 74-180 M165A limits assumed): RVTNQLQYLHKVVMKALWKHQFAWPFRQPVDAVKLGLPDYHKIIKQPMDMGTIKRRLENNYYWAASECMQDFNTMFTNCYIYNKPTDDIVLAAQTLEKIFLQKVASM
Method: (§1) DSF assays were performed on a LightCycler®480 from Roche or a Mx3005P Real Time PCR machine from Stratagene. Prior to DSF assays, frozen proteins were buffer exchanged using Vivaspin®6 concentrators with a 10 kDa cutoff on a Centrifuge 5430 from Eppendorf at a speed of 6000×g to remove glycerol and to buffer the proteins in 20 mM HEPES pH 7.5 at 25° C. and 100 mM NaCl. SYPRO®Orange from Invitrogen Molecular Probes® was used as a reporter dye to monitor the denaturing process of the proteins. Samples were assayed on a 96-well plate with final protein concentrations of 2 μM for the LightCycler®480 and 6 μM for Mx3005P. Compounds were added at a final concentration of 10 μM for the LightCycler®480 and 30 μM for Mx3005P, while the tetra acetylated histone peptide was added to a final concentration of 100 μM and 300 μM respectively. […] The temperature was raised with a step of 0.6° C. per minute from 37° C. to 95° C. with the LightCycler®480 collecting 39 measurements per ° C., and 1° C. per minute from 25° C. to 95° C. with Mx3005P, collecting fluorescence readings at the end of each interval. Each sample was run in triplicates.
(§2) Collected data was analysed by IGOR Pro 6, a scientific software tool from Wave Metrics, Inc. Analysis was done following the recommendations of Niesen et al.. Fluorescence intensity was plotted as a function of temperature, generating a sigmoidal curve described by a two-state transition from folded to unfolded protein. Curves were fitted by the following sigmoidal equation: […]
(§3) A1 and A2 are the values of minimum and maximum intensities, respectively, x0 is the inflection point and dx is the rate. Fitted curves were differentiated in IGOR Pro 6 and the maximum of the first derivative was identified using the same program. These values correspond to the inflection points of the transition curves and thus to the melting temperatures of the proteins (Tm).

[3] = target: T1, Brd2(2)*(Met438-Ala) (Homo sapiens, UniProt P25440, M438A); assay: DSF thermal shift; type: binding; conditions: mutant
T1 construct: Plasmids of the eight single BET bromodomain constructs Brd2(1), Brd2(2), Brd3(1), Brd3(2); His6 (N); made in house; host or cells: E. coli BL21(DE3)
T1 sequence (P25440 344-453 M438A limits assumed): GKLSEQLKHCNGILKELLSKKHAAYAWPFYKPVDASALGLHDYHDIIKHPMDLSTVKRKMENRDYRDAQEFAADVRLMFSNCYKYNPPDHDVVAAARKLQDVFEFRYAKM
Method: as §1, §2, §3

[4] = target: T2, Brd2(2)*(Met438-Leu) (Homo sapiens, UniProt P25440, M438L); assay: DSF thermal shift; type: binding; conditions: mutant
T2 construct: Plasmids of the eight single BET bromodomain constructs Brd2(1), Brd2(2), Brd3(1), Brd3(2); His6 (N); made in house; host or cells: E. coli BL21(DE3)
T2 sequence (P25440 344-453 M438L limits assumed): as the sequence (P25440 344-453 M438A limits assumed) above, with A95L counted along it
Method: as §1, §2, §3

[5] = target: T3, Brd2(1)*(Met165-Leu) (Homo sapiens, UniProt P25440, M165L); assay: DSF thermal shift; type: binding; conditions: mutant
T3 construct: Plasmids of the eight single BET bromodomain constructs Brd2(1), Brd2(2), Brd3(1), Brd3(2); His6 (N); made in house; host or cells: E. coli BL21(DE3)
T3 sequence (P25440 74-180 M165L limits assumed): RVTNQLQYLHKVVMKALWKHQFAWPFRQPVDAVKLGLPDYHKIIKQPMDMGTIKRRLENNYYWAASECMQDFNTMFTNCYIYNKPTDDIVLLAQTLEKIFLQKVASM
Method: as §1, §2, §3

[6] = target: T4, Brd2(1) (Homo sapiens, UniProt P25440); assay: DSF thermal shift; type: binding; conditions: wild type
T4 construct: Plasmids of the eight single BET bromodomain constructs Brd2(1), Brd2(2), Brd3(1), Brd3(2); His6 (N); made in house; host or cells: E. coli BL21(DE3)
T4 sequence (P25440 74-180 limits assumed): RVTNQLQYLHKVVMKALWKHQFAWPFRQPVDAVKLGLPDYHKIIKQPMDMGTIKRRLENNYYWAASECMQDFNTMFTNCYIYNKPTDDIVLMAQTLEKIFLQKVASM
Method: as §1, with “Prior to DSF assays, frozen proteins were buffer exchanged using Vivaspin®6 concentrators with a 10 kDa cutoff on a Centrifuge 5430 from Eppendorf at a speed of 6000×g to remove glycerol and to buffer the proteins in 20 mM HEPES pH 7.5 at 25° C. and 100 mM NaCl.” left out
as §2, §3

[7] = target: T5, Brd2(2) (Homo sapiens, UniProt P25440); assay: DSF thermal shift; type: binding; conditions: wild type
T5 construct: Plasmids of the eight single BET bromodomain constructs Brd2(1), Brd2(2), Brd3(1), Brd3(2); His6 (N); made in house; host or cells: E. coli BL21(DE3)
T5 sequence (P25440 344-453 limits assumed): as the sequence (P25440 344-453 M438A limits assumed) above, with A95M counted along it
Method: as §1, with “Prior to DSF assays, frozen proteins were buffer exchanged using Vivaspin®6 concentrators with a 10 kDa cutoff on a Centrifuge 5430 from Eppendorf at a speed of 6000×g to remove glycerol and to buffer the proteins in 20 mM HEPES pH 7.5 at 25° C. and 100 mM NaCl.” left out
as §2, §3

[8] = target: T6, Brd2(2)*(Trp370Phe) (Homo sapiens, UniProt P25440, W370F); assay: DSF thermal shift; type: binding; conditions: mutant
T6 construct: Plasmids of the eight single BET bromodomain constructs Brd2(1), Brd2(2), Brd3(1), Brd3(2); His6 (N); made in house; host or cells: E. coli BL21(DE3)
T6 sequence (P25440 344-453 W370F limits assumed): as the sequence (P25440 344-453 M438A limits assumed) above, with W27F, A95M counted along it
Method: as §1, with “Prior to DSF assays, frozen proteins were buffer exchanged using Vivaspin®6 concentrators with a 10 kDa cutoff on a Centrifuge 5430 from Eppendorf at a speed of 6000×g to remove glycerol and to buffer the proteins in 20 mM HEPES pH 7.5 at 25° C. and 100 mM NaCl.” left out
as §2, §3

[9] = target: T7, Brd2(1)*(Trp097Phe) (Homo sapiens, UniProt P25440, W97F); assay: DSF thermal shift; type: binding; conditions: mutant
T7 construct: Plasmids of the eight single BET bromodomain constructs Brd2(1), Brd2(2), Brd3(1), Brd3(2); His6 (N); made in house; host or cells: E. coli BL21(DE3)
T7 sequence (P25440 74-180 W97F limits assumed): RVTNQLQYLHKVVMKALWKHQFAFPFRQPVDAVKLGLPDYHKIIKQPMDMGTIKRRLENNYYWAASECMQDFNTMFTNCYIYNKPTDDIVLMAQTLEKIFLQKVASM
Method: as §1, with “Prior to DSF assays, frozen proteins were buffer exchanged using Vivaspin®6 concentrators with a 10 kDa cutoff on a Centrifuge 5430 from Eppendorf at a speed of 6000×g to remove glycerol and to buffer the proteins in 20 mM HEPES pH 7.5 at 25° C. and 100 mM NaCl.” left out
as §2, §3

[10] = target: T8, Brd2(1)*(Trp097His) (Homo sapiens, UniProt P25440, W97H); assay: DSF thermal shift; type: binding; conditions: mutant
T8 construct: Plasmids of the eight single BET bromodomain constructs Brd2(1), Brd2(2), Brd3(1), Brd3(2); His6 (N); made in house; host or cells: E. coli BL21(DE3)
T8 sequence (P25440 74-180 W97H limits assumed): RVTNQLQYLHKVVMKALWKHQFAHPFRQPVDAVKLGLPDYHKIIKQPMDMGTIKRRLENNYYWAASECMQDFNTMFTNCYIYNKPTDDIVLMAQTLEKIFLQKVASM
Method: as §1, with “Prior to DSF assays, frozen proteins were buffer exchanged using Vivaspin®6 concentrators with a 10 kDa cutoff on a Centrifuge 5430 from Eppendorf at a speed of 6000×g to remove glycerol and to buffer the proteins in 20 mM HEPES pH 7.5 at 25° C. and 100 mM NaCl.” left out
as §2, §3

[11] = target: T9, Brd2(2)*(Trp370His) (Homo sapiens, UniProt P25440, W370H); assay: DSF thermal shift; type: binding; conditions: mutant
T9 construct: Plasmids of the eight single BET bromodomain constructs Brd2(1), Brd2(2), Brd3(1), Brd3(2); His6 (N); made in house; host or cells: E. coli BL21(DE3)
T9 sequence (P25440 344-453 W370H limits assumed): as the sequence (P25440 344-453 M438A limits assumed) above, with W27H, A95M counted along it
Method: as §1, with “Prior to DSF assays, frozen proteins were buffer exchanged using Vivaspin®6 concentrators with a 10 kDa cutoff on a Centrifuge 5430 from Eppendorf at a speed of 6000×g to remove glycerol and to buffer the proteins in 20 mM HEPES pH 7.5 at 25° C. and 100 mM NaCl.” left out
as §2, §3

C=CC[C@@H](C(=O)OC)[C@@H]1N=C(c2ccc(Cl)cc2)c2cc(OC)ccc2-n2c(C)nnc21 (racemic) [AL, (+−)methyl (R)-2-((S)-6-(4-chlorophenyl)-8-methoxy-1-methyl-4H-benzo[f][1,2,4]triazolo[4,3-a][1,4]diazepin-4-yl)pent-4-enoate]
Selectivity for Brd2(2) mutants relative to wild type by ITC (FIG. 16) [1]: higher selectivity for the mutants relative to wild types

CC[C@@H](C(=O)OC)[C@@H]1N=C(c2ccc(Cl)cc2)c2ccc(OC)cc2-n2c(C)nnc21 (racemic) [Compound 9-ET, (+−) methyl (R)-2-((S)-6-(4-chlorophenyl)-9-methoxy-1-methyl-4H-benzo[f][1,2,4]triazolo[4,3-a][1,4]diazepin-4-yl)butanoate]
Selectivity for Brd2(2) mutants relative to wild type by ITC (FIG. 16) [1]: higher selectivity for the mutants relative to wild types

COC(=O)[C@H](C)[C@@H]1N=C(c2ccc(Cl)cc2)c2ccc(OC)cc2-n2c(C)nnc21 (racemic) [Compound 9-ME, (+−) methyl (R)-2-((S)-6-(4-chlorophenyl)-9-methoxy-1-methyl-4H-benzo[f][1,2,4]triazolo[4,3-a][1,4]diazepin-4-yl)propanoate]
Selectivity for Brd2(2) mutants relative to wild type by ITC (FIG. 16) [1]: higher selectivity for the mutants relative to wild types

CCNC(=O)[C@H](C)[C@@H]1N=C(c2ccc(Cl)cc2)c2ccc(OC)cc2-n2c(C)nnc21 (racemic) [Compound 9-ME-Am1, (+−) (R)-2-((S)-6-(4-chlorophenyl)-9-methoxy-1-methyl-4H-benzo[f][1,2,4]triazolo[4,3-a][1,4]diazepin-4-yl)-N-ethylpropanamide]
Selectivity for Brd2(2) mutants relative to wild type by ITC (FIG. 16) [1]: higher selectivity for the mutants relative to wild types

CCNC(=O)[C@H](CC)[C@@H]1N=C(c2ccc(Cl)cc2)c2cc(OC)ccc2-n2c(C)nnc21 (racemic) [ET-Am1, (+−) (R)-2-((S)-6-(4-chlorophenyl)-8-methoxy-1-methyl-4H-benzo[f][1,2,4]triazolo[4,3-a][1,4]diazepin-4-yl)-N-ethylbutanamide]
Selectivity for Brd2(2) mutants relative to wild type by ITC (FIG. 16) [1]: higher selectivity for the mutants relative to wild types

CC[C@@H](C(=O)N(CC)CC)[C@@H]1N=C(c2ccc(Cl)cc2)c2cc(OC)ccc2-n2c(C)nnc21 (racemic) [ET-Am2, (+−) (R)-2-((S)-6-(4-chlorophenyl)-8-methoxy-1-methyl-4H-benzo[f][1,2,4]triazolo[4,3-a][1,4]diazepin-4-yl)-N,N-diethylbutanamide]
Selectivity for Brd2(2) mutants relative to wild type by ITC (FIG. 16) [1]: higher selectivity for the mutants relative to wild types

CCNC(=O)[C@H](C)[C@@H]1N=C(c2ccc(Cl)cc2)c2cc(OC)ccc2-n2c(C)nnc21 (racemic) [ME-Am1, (+−) (R)-2-((S)-6-(4-chlorophenyl)-8-methoxy-1-methyl-4H-benzo[f][1,2,4]triazolo[4,3-a][1,4]diazepin-4-yl)-N-ethylpropanamide]
Selectivity for Brd2(2) mutants relative to wild type by ITC (FIG. 16) [1]: higher selectivity for the mutants relative to wild types

CCN(CC)C(=O)[C@H](C)[C@@H]1N=C(c2ccc(Cl)cc2)c2cc(OC)ccc2-n2c(C)nnc21 (racemic) [ME-Am2, (+−) (R)-2-((S)-6-(4-chlorophenyl)-8-methoxy-1-methyl-4H-benzo[f][1,2,4]triazolo[4,3-a][1,4]diazepin-4-yl)-N,N-diethylpropanamide]
Selectivity for Brd2(2) mutants relative to wild type by ITC (FIG. 16) [1]: higher selectivity for the mutants relative to wild types

COc1ccc(S(=O)(=O)Nc2ccc3c(c2)CN(C)C(=O)N3)c(OC)c1 [Compound 54, 2,4-dimethoxy-N-(3-methyl-2-oxo-1,2,3,4-tetrahydroquinazolin-6-yl)benzenesulfonamide]
ΔTm Brd2(1)*(Met165-Ala) [2]: 1.5 ± 0.2 K | ΔTm Brd2(2)*(Met165-Ala) [3]: 2.3 ± 0.1 K | ΔTm Brd2(2)*(Met165-Leu) [4]: 2.4 ± 0.4 K | ΔTm Brd2(1)*(Met165-Leu) [5]: 2.7 ± 0.3 K | ΔTm Brd2(1) [6]: 2.4 ± 0.2 K | ΔTm Brd2(2) [7]: 1.6 ± 0.2 K

COc1ccccc1S(=O)(=O)Nc1ccc2c(c1)CN(C)C(=O)N2 [PFI-1, reference compound]
ΔTm Brd2(1)*(Met165-Ala) [2]: 1.6 ± 0.1 K | ΔTm Brd2(2)*(Met165-Ala) [3]: 1.7 ± 0.1 K | ΔTm Brd2(2)*(Met165-Leu) [4]: 2.1 ± 0.3 K | ΔTm Brd2(1)*(Met165-Leu) [5]: 1.3 ± 0.3 K | ΔTm Brd2(2)*(Tryp370-Phe) [8]: 2.9 ± 0.3 K | ΔTm Brd2(1) [6]: 4.5 ± 0.3 K | ΔTm Brd2(1)*(Tryp097-Phe) [9]: 2.6 ± 0.4 K | ΔTm Brd2(2) [7]: 4.5 ± 0.2 K | ΔTm Brd2(1)*(Tryp097-His) [10]: 1.9 ± 0.5 K | ΔTm Brd2(2)*(Tryp370-His) [11]: 1.8 ± 0.0 K
